The structures appear in SMILES notation. Values after ≈ are worked out from the molar mass of the structure shown. “Also recorded” adds a separate entry of the source. Read-outs that look alike come from different tables or passages of the source.

Assay [1] relates to Staphylococcus epidermidis. The assay can be described thus: MIC Agar Dilution Test, Staphylococcus epidermidis. Format: cell-based. The following applies: S. epidermidis. The text has this: (§1) The following strains of microorganisms were used in Minimum Inhibitory Concentration (MIC) tests for phenyl 2-acetoxyethanoic acid in this example and for benzoyl peroxide, chlorhexidine gluconate and triclosan in the following examples. In total, five strains were used for S. aureus, five strains were used for S. epidermidis, two strains were used for M. sedentarius, three strains were used for M. luteus, two strains were used for B. epidermis, three strains were used for C. minutissium, one strain was used for S. marcescens, three strains were used for P. aeruginosa, four strains were used for E. coli, and thirty-two strains were used for P. acnes.
(§2) Antimicrobial effects were determined based on MIC Agar Dilution Test utilizing Trypticase Soy Agar II (BBL) incorporation plates with and without 10% intralipid (Kabi Pharmacia Inc.). Initially, phenyl 2-acetoxyethanoic acid was prepared as a 2 mg/ml (0.2%) solution in water. This solution with serial dilution was incorporated into the test agar plates. The MIC test gave similar results when the same species but a different strain was used.
(§3) Under the same test conditions described in Example 1, benzoyl peroxide was prepared as a 2.5 mg/ml (0.25%) solution in water. This solution with serial dilution was incorporated into the test agar plates. Typical test results are shown as follows.
(§4) Under the same test conditions described in Example 1, chlorhexidine gluconate was prepared as a 2 mg/ml (0.2%) solution in water. This solution with serial dilution was incorporated into the test agar plates. Typical test results are shown as follows.
(§5) Under the same test conditions described in Example 1, triclosan was prepared as a 10 mg/ml (1%) solution in water. This solution with serial dilution was incorporated into the test agar plates. Typical test results are shown as follows.
(§6) Ten different species of bacteria were used in Minimum Inhibitory Concentration (MIC) tests. The bacteria include S. aureus, S. epidermidis,M. sedentarius, M. luteus, B. epidermis, C. minutissium, S. marcescens, P. aeruginosa, E. coli, and P. acnes. In addition various sources and strains of these bacteria were also included in the tests, and up to 32 different strains of P. acnes were used.
(§7) The test substance selected from phenyl 2-acetoxyethanoic acid, benzoyl peroxide, chlorhexidine gluconate and triclosan was dissolved in water, and the solution with serial dilution was incorporated into the test agar plates. The plates containing different concentrations of test substance were inoculated with a strain of bacterium. MIC is defined as the lowest concentration of the test substance in the plate in which there is no growth of the microorganism.

In another assay the test system is Escherichia coli. The assay can be described thus: MIC Agar Dilution Test, Escherichia coli. In kind it is cell-based. The following applies: E. coli.
Excerpt: as §1, §2, §3, §4, §5, §6, §7
(In agar dilution the substance is mixed into plates at graded concentrations.)

The subject of a further assay is Propionibacterium acnes. The assay can be described thus: MIC Agar Dilution Test, Propionibacterium acnes. Format: cell-based. The following applies: for MIC: Cutibacterium acnes.
Excerpt: as §1, §2, §3, §4, §5, §6, §7

A short description of assay [2]: prophylactic effect in preventing the development of axillary foul odor. Format: in vivo, human. Particulars: Example 5; 0.5% solution, topical; one person; up to 24 hours. The procedure: A typical test for prophylactic effect in preventing the development of axillary foul odor was carried out as follows. A test composition was prepared by dissolving 0.5 g of phenyl 2-acetoxyethanoic acid or diphenyl 2-acetoxyethanoic acid in 70 ml of ethanol and 30 ml of propylene glycol. The control vehicle was prepared by mixing 70 ml of ethanol and 30 ml of propylene glycol. A human subject was instructed to take a shower in the morning using ordinary soap to clean the body surfaces. After the skin was dried, the test composition was topically applied to the left underarm area only. The vehicle control was topically applied to the right underarm area. Both underarm areas were monitored by the subject and at least one other person approximately every 8 hours to determine whether the test composition had any prophylactic effect in preventing the development of underarm foul odor in the left axilla as compared to the vehicle alone on the right control armpit.
Presence or substantial absence of foul odor, detected by smell, was adopted as the criteria for ineffectiveness or effectiveness of the test composition.
A total of seven subjects (four females; three males) participated in several studies. Most of these subjects could not use existing commercial products of antiperspirants or deodorants because of severe irritation after topical application. […]

[3] abbreviates: 10% intralipid, read-out: MIC Lipid.
The mark [4] stands for this setting: no lipid, read-out: MIC No Lipid.

With `CC(=O)OC(C(=O)O)c1ccccc1` (stereo not shown) [phenyl 2-acetoxyethanoic acid], the MIC in assay [1] (setting [3]) worked out at 1000 µg/mL (≈ 5.15 mM); in assay [1] (setting [4]) it was 1000 µg/mL (≈ 5.15 mM); with Escherichia coli (setting [3]), 1000 µg/mL (≈ 5.15 mM); in the assay with Escherichia coli (setting [4]) it was 1000 µg/mL (≈ 5.15 mM); in the assay with Propionibacterium acnes (P. acnes, 10% intralipid, read-out: MIC Lipid), 250 µg/mL (≈ 1.29 mM); in the assay on Propionibacterium acnes (P. acnes, no lipid, read-out: MIC No Lipid) it was 250 µg/mL (≈ 1.29 mM). Further, the MIC in the assay on Propionibacterium acnes (even in the presence of 10% lipid materials, read-out: concentration specifically effective against the growth of P. acnes) turned out to be 250 µg/mL; in the assay with Propionibacterium acnes (in the presence of 10% lipid materials, read-out: concentration effective against P. acnes), 250 µg/mL. Besides, the “inhibitory effect against P. acnes, compared” value in the assay with Propionibacterium acnes (with or without lipid materials, same test conditions as comparators) was “most active and effective compound against P. acnes”. For the same molecule, the “prevention of axillary foul odor (left underarm)” value in assay [2] was “did not produce any detectable odor, even after 24 hours; also recorded: substantially effective in preventing the development of axillary foul odor”.

The values above are taken from US6046238A, “Method for treating or preventing the spread of acne vulgaris” (TriStrata, Inc., priority 1999, dated 2000).
